Legend:
EP2 receptor (PTGER2) = molecular target: T1, EP2 receptor (PTGER2) (Homo sapiens, UniProt P43116); test: PathHunter beta-arrestin cell-based prostanoid receptor assay, EP2
T1 construct: host or cells: PathHunter beta-arrestin cell line
Experimental: (§1) DiscoverX cell-based ligand binding assays were performed in the PathHunter beta-arrestin (EP1, EP2, EP3, EP4, FP, IP, and TP receptors) or cAMP Hunter™ (DP receptor) cell lines.
(§2) Receptor binding studies were performed in either the PathHunter® b-Arrestin (EP1, EP2, EP3, EP4, FP, IP, and TP receptors) or cAMP Hunter™ (DP receptor) cell lines. A 10 mM working stock of GP1681 was created in 1×PBS, pH 7.4. All assays were carried out in duplicate with 10 individual concentrations of GP1681. A three-fold dilution series of GP1681 was established for the initial or pilot experiment with a starting concentration of 4 uM (starting concentration was chosen based on previous Gemmus Pharma preclinical experimental results).
(§3) GP1681 was incubated with cells lines at either 37° C. or room temperature, for 90-180 minutes (temperatures and incubation times are all dependent on established optimized procedures for each receptor cell line) after which cell wells were processed and signal production detected. […] Receptor binding activity was analyzed using CBIS data analysis suite (ChemInnovation, CA). The percentage of activity was calculated using the following formula: % Activity=100%×(mean RLU of test sample−mean RLU of vehicle control)/(mean MAX control ligand−mean RLU of vehicle control). Dose curves were performed and EC50 values determined.

[1] = Stability of GP1681 dosing formulations at room temperature by UHPLC; format: physicochemical; details: 10% (w/v) PEG 400 in calcium and magnesium free PBS, pH 7.4; 0.0319 and 0.0596 mg/mL
Experimental: GP1681 in 10% (w/v) polyethylene glycol (PEG) 400 in calcium and magnesium free phosphate buffered saline (PBS), pH 7.4 was used for evaluation by ultra-high performance liquid chromatography (UHPLC; Agilent 1290 UHPLC instrument).
Dosing formulations of GP1681 (0, 0.01, 0.03, and 0.05 mg/mL) in 10% (w/v) PEG 400 in calcium and magnesium free PBS, pH 7.4 were collected and analyzed by UHPLC to assess accuracy of the preparation. Aliquots from the top, middle and bottom of the formulations were collected and analyzed to assess homogeneity of the formulations. The dosing formulations were diluted to bring the test article concentration to a suitable level within the calibration range. The samples were initially analyzed on the day of preparation. However, due to unacceptable results observed, the backup samples (stored at −10 to −30° C.) were analyzed five days later.
The concentration of GP1681 was calculated by reference to the solvent standard solutions prepared and analyzed concurrently with the dosing formulations. […]
Stability of the dosing formulations was determined by storing the middle aliquots of the high and low primary dose formulation samples in the Definitive Assay at room temperature for 3.7 hours and reanalyzing as described above. The results met the acceptance criterion of 90-110% of the concentration determined at T=0.

[2] = Effect of food on oral absorption of GP1681
EP3 receptor (PTGER3) = molecular target: T2, EP3 receptor (PTGER3) (Homo sapiens, UniProt P43115); test: PathHunter beta-arrestin cell-based prostanoid receptor assay, EP3; details: β-Arrestin
T2 construct: host or cells: PathHunter beta-arrestin cell line
T2 sequence (P43115 1-390): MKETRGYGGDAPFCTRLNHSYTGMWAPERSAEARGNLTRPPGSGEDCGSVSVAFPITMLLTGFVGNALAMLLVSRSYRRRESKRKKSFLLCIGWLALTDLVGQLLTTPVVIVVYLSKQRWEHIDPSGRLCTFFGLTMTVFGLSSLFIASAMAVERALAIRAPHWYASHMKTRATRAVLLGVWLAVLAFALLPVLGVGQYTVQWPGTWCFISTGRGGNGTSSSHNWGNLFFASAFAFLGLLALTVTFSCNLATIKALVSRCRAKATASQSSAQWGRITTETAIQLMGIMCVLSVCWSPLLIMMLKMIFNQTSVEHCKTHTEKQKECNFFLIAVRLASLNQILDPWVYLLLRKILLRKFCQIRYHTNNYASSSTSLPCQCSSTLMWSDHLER
Experimental: as §1, §2
as §3, with “determined. […]” for “determined.”

EP4 receptor (PTGER4) = molecular target: T3, EP4 receptor (PTGER4) (Homo sapiens, UniProt P35408); test: PathHunter beta-arrestin cell-based prostanoid receptor assay, EP4; details: β-Arrestin
T3 construct: expressed in transfected cells; host or cells: PathHunter β-Arrestin PTGER4 (EP4) cell line
Experimental: as §1, §2
as §3, with “determined. […]” for “determined.”

DP1 receptor (PTGDR) = molecular target: T4, DP1 receptor (PTGDR) (Homo sapiens, UniProt Q13258); test: cAMP Hunter cell-based prostanoid receptor assay, DP receptor; details: HitHunter cAMP cell line
T4 construct: host or cells: cAMP Hunter (DP receptor) cell line
T4 sequence (Q13258 1-359): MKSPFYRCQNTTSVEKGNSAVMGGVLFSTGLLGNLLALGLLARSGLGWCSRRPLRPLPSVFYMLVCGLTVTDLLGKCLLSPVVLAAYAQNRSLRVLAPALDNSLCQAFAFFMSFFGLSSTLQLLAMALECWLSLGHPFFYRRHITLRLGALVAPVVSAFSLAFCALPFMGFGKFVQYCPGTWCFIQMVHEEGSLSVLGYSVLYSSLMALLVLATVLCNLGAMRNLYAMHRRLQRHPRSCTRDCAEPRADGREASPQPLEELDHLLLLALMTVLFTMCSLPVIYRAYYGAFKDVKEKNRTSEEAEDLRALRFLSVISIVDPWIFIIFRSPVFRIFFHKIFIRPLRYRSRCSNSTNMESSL
Experimental: as §1, §2
GP1681 was incubated with cells lines at either 37° C. or room temperature, for 90-180 minutes (temperatures and incubation times are all dependent on established optimized procedures for each receptor cell line) after which cell wells were processed and signal production detected. […] Vehicle only controls (PBS, pH 7.4) were also included for each receptor cell line. Receptor binding activity was analyzed using CBIS data analysis suite (ChemInnovation, CA). The percentage of activity was calculated using the following formula: % Activity=100%×(mean RLU of test sample−mean RLU of vehicle control)/(mean MAX control ligand−mean RLU of vehicle control). Dose curves were performed and EC50 values determined.
The four assays were repeated with a higher starting concentration.
The second experimental run of the receptor binding assay was performed with these last four cell lines including GP1681 and their respective positive and negative (vehicle, PBS pH 7.4) controls. A 10 mM GP1681 working stock was again created in 1×PBS, pH 7.4. A three-fold serial dilution scheme was again used for GP1681 samples, starting this time at a concentration of 500 μM. The remainder of the second experimental run was performed in the same manner as run 1.

FP receptor (PTGFR) = molecular target: T5, FP receptor (PTGFR) (Homo sapiens, UniProt P43088); test: PathHunter beta-arrestin cell-based prostanoid receptor assay, FP
T5 construct: host or cells: PathHunter beta-arrestin cell line
Experimental: as §1, §2, §3

[3] = Run 1, GP1681 starting concentration 4 uM, β-Arrestin
[4] = Run 1, GP1681 starting concentration 4 uM, curve for GP1681 not fully sigmoidal
[5] = Run 2, GP1681 starting concentration 500 μM

T5 sequence (P43088 whole entry): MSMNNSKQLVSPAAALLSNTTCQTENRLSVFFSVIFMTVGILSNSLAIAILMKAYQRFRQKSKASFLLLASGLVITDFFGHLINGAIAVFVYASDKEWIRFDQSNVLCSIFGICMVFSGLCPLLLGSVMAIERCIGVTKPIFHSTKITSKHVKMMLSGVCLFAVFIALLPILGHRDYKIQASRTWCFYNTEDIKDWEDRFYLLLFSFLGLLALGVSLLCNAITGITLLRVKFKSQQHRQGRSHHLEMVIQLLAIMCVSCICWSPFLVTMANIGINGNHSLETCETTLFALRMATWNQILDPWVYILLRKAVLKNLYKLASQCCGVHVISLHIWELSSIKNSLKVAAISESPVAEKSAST
T1 sequence (P43116 whole entry): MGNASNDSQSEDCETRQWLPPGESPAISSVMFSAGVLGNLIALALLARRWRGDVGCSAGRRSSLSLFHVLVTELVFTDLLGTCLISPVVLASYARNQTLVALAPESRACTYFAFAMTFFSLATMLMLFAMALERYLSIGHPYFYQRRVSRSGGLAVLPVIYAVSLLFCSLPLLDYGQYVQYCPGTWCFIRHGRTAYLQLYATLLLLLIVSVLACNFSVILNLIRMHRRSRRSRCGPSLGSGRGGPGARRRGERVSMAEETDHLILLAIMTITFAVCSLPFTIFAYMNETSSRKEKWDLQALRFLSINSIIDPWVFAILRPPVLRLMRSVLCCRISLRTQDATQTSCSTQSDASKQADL
T3 sequence (P35408 whole entry): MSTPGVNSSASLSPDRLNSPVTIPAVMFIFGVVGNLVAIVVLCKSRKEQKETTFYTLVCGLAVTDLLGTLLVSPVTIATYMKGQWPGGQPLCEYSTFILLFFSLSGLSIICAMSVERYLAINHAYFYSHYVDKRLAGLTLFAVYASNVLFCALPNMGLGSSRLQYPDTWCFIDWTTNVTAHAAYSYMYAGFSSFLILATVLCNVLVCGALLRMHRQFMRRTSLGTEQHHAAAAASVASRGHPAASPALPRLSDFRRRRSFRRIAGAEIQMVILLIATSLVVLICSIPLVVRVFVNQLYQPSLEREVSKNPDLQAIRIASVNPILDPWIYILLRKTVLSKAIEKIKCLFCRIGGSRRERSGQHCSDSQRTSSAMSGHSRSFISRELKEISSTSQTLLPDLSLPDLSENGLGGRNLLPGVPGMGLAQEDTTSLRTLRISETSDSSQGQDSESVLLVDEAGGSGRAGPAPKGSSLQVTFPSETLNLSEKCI

## CC#CCC(C)C(O)C=CC1C(O)CC2Oc3c(CCCC(=O)O)cccc3C21 (single isomer, unassigned) [GP1681, esuberaprost]
EP2 receptor (PTGER2)
  binding to EP2 receptor, in words: does not bind
EP2 receptor (PTGER2); [3]
  EC50: > 4000 nM
[1]
  stable at room temperature: at least 3.7 hours
[2]
  effect of food on oral absorption: positive effect
EP3 receptor (PTGER3); [4]
  EC50: 1830 nM
EP3 receptor (PTGER3); [5]
  EC50: 5390 nM
EP4 receptor (PTGER4); [4]
  EC50: 1740 nM
EP4 receptor (PTGER4); [5]
  EC50: 18100 nM
DP1 receptor (PTGDR); [4]
  EC50: 1350 nM
DP1 receptor (PTGDR); [5]
  EC50: 1330 nM
FP receptor (PTGFR)
  binding to FP receptor, in words: does not bind
FP receptor (PTGFR); [3]
  EC50: > 4000 nM

From US12042503B2, “Compositions and methods for treating coronavirus infections” (priority 2020, dated 2024)
